The structures appear in SMILES notation.

This data set can be described thus: Thermo Scientific Acclaim RSLC 120 C18, 100 × 2.1 mm, 2.2 µm, 30 °C; A: 90% water + 10% methanol + 0.01% formic acid + 5 mM ammonium formate; B: methanol + 0.01% formic acid + 5 mM ammonium formate; gradient (min/%B) 0.1/1 3/39 14/99.9 16/99.9. To be noted: stereoisomer not certain.
Consider `CC(C)OP(=O)(OC(C)C)SCc1ccccc1`, for which the LC retention time is 10.6 min.
For `CCC(C(=O)c1ccc2c(c1)OCO2)N1CCCC1` (stereo unspecified) the value was 4.49 min; for `C[N+]1([O-])CCN2c3ccccc3Cc3ccccc3C2C1` (stereo unspecified), 7.63 min.
For `CCCNCC(O)COc1ccccc1C(=O)CCc1ccccc1` (stereo unspecified) the value was 7.81 min.
Consider `CC(=O)OC1CN2CCC1CC2` (stereo unspecified), for which the LC retention time is 4.87 min.
The same measure for `CN(CCOc1ccc(CC2SC(=O)NC2=O)cc1)c1ccccn1` (stereo unspecified): 6.98 min.
For `CN(C)CCCn1c2c(c3ccccc31)CCCCCC2` the value was 9.26 min; for `CCCCCn1cc(C(=O)c2ccc(OC)c3ccccc23)c2ccccc21`, 12.7 min.
As to `COC(=O)C1=CCCN(C)C1`, the LC retention time worked out at 1.74 min.
For the molecule `CC12CCC(=O)C=C1CCC1C2CCC2(C)C(C(=O)COC(=O)CCc3ccccc3)CCC12` (stereo unspecified), the LC retention time was determined as 13 min.
The same measure for `Nc1ncnc2nc[nH]c12`: 2.43 min.
For the molecule `COc1cccc(C2(O)CCCCC2C[N+](C)(C)[O-])c1` (stereo unspecified), the LC retention time is 5.24 min.
For `CCCC1C(=O)N2C(N(C)C)=Nc3ccc(C)cc3N2C1=O` (stereo unspecified) the value was 6.54 min; for `CCCCCCC(C)(C)c1cc(O)c2c(c1)OC(C)(C)C1CC=C(CO)CC21` (stereo unspecified), 13.5 min; for `COC(=O)c1ccccc1S(=O)(=O)NC(=O)N(C)c1nc(C)nc(OC)n1`, 7.94 min.
For `CCS(=O)(=O)CCSP(=O)(OC)OC` the value was 4.15 min.
For `c1cc2c(cc1CN1CCNCC1)OCO2` the value was 4.22 min.
As for `O=C(O)CCCO`, the LC retention time was found to be 1.95 min.
For `CCOc1nc2cccc(C(=O)O)c2n1Cc1ccc(-c2ccccc2-c2nn[nH]n2)cc1` the value was 7.93 min; for `COc1cc(CCN)c(OC)cc1C`, 5.34 min.
The same measure for `CN1CCCC(CC2c3ccccc3Sc3ccccc32)C1` (stereo unspecified): 8.51 min; for `CCOP(=O)(NC(C)C)Oc1ccc(SC)c(C)c1` (stereo unspecified): 10.4 min.
For `CCCC1CC(C(=O)NC(C(C)O)C2OC(SC)C(O)C(O)C2O)N(C)C1` (stereo unspecified) the value was 4.08 min; for `Cc1nc(N(C)C)nc(OC(=O)N(C)C)c1C`, 7.77 min.
As to `Cc1ncc(CSSCc2cnc(C)c(O)c2CO)c(CO)c1O`, the LC retention time turned out to be 5.54 min.
As to `CC(NCCc1ccc(O)cc1)C(O)c1ccc(O)cc1` (stereo unspecified), the LC retention time was determined as 3.79 min.
The same measure for `CNC(=O)Oc1cccc2c1OC(C)(C)O2`: 7.02 min.
The same measure for `CC(C(=O)O)c1ccc(CC(C)(C)O)cc1` (stereo unspecified): 7.08 min; for `CC(C)CN(CC(O)C(Cc1ccccc1)NC(=O)OC1COC2OCCC12)S(=O)(=O)c1ccc(N)cc1` (stereo unspecified): 8.21 min; for `CC(C)(C)NCC(O)COc1cccc2c1CCCC2=O` (stereo unspecified): 4.84 min.
The same measure for `CCCc1cc(C(N)=S)ccn1`: 6.36 min.
As to `CN1CCOC(c2ccccc2)c2ccccc2C1` (stereo unspecified), the LC retention time is 5.67 min.
For `CCS(=O)(=O)CCn1c([N+](=O)[O-])cnc1C` the value was 3.86 min; for `CC(O)CCCn1cc(C(=O)c2cccc3ccccc23)c2ccccc21` (stereo unspecified), 10.1 min; for `Nc1c2c(nc3ccccc13)CCCC2`, 4.77 min.
For `CNCCC(c1ccccc1)c1ccccn1` (stereo unspecified) the value was 5.79 min; for `CN1CCN(CCC=C2c3ccccc3Sc3ccc(S(=O)(=O)N(C)C)cc32)CC1`, 8.38 min; for `CC(CCc1ccc(O)cc1)NCC(O)c1ccc(O)cc1` (stereo unspecified), 4.39 min.
On to `COc1ccccc1OCC(O)CO` (stereo unspecified), for which the LC retention time worked out at 5.11 min.
The same measure for `CNC(C)Cc1ccccc1OC` (stereo unspecified): 4.69 min.
For `CN1CCCCC1Cn1cc(C(=O)c2cccc3ccccc23)c2ccccc21` (stereo unspecified) the value was 8.09 min.
For `CCc1cccc(C)c1N(C(=O)CS(=O)(=O)O)C(C)COC` (stereo unspecified) the value was 7.34 min.
For `C=C1CC23CC1(O)CCC2C12C=CC(O)C(C)(C(=O)O1)C2C3C(=O)O` (stereo unspecified), the LC retention time worked out at 4.91 min.
As for `CCCSC(=O)N(CCC)CCC`, the LC retention time is 11.5 min.
Turning to `COc1nc(C)nc(N)n1`, the LC retention time was 3.71 min.
For `CCCC(Cc1ccccc1)N1CCCC1` (stereo unspecified) the value was 5.56 min; for `O=C(O)c1cccc(Oc2ccccc2)c1`, 9.38 min; for `CNCCCC(C#N)(c1ccc(OC)c(OC)c1)C(C)C` (stereo unspecified), 6.14 min.
For `CC(C)(C)NCC(O)COc1nsnc1N1CCOCC1` (stereo unspecified) the value was 4.88 min.
As to `CN1CCN2c3ncc(O)cc3Cc3ccccc3C2C1` (stereo unspecified), the LC retention time came to 4.54 min.
For `Cc1ccc(C(C)NC(=O)C(NC(=O)OC(C)C)C(C)C)cc1` (stereo unspecified) the value was 9.82 min.
For `COC(=O)C1=C(C)NC(C)=C(C(=O)OCC(C)C)C1c1ccccc1[N+](=O)[O-]` (stereo unspecified) the value was 10.6 min.
`Cc1ccccc1CC(C)N` (stereo unspecified): the LC retention time turned out to be 5.17 min.
The same measure for `CC(C)C(N)C(=O)OCC(CO)OCn1cnc2c(=O)[nH]c(N)nc21` (stereo unspecified): 2.71 min.
The same measure for `COc1cc(C(=O)OCCCN(C)CCN(C)CCCOC(=O)c2cc(OC)c(OC)c(OC)c2)cc(OC)c1OC`: 7.54 min; for `COC(=O)C1=C(C)NC(C)=C(C(=O)OCCN(C)Cc2ccccc2)C1c1cccc([N+](=O)[O-])c1` (stereo unspecified): 8.39 min.
For the molecule `CCCCCn1cc(C(=O)c2cccc3ccccc23)c2ccccc21`, the LC retention time was determined as 12.4 min.
For `COc1ccc(CC(C)N)c(OC)c1OC` (stereo unspecified) the value was 4.16 min; for `CCCc1nn(C)c2c(=O)[nH]c(-c3cc(S(=O)(=O)N4CC(C)NC(C)C4)ccc3OCC)nc12` (stereo unspecified), 7.6 min.
For `COC(=O)Nc1cccc(OC(=O)Nc2cccc(C)c2)c1` the value was 8.75 min; for `CCOP(=O)(OCC)OCC`, 6.16 min; for `CCc1cc(OC)c(CCN)cc1OC`, 6.48 min.
With `Cc1nnc(-c2ccccc2)c(=O)n1N`, the LC retention time turned out to be 5.24 min.
The same measure for `CCOC(=O)C(CCc1ccccc1)NC(C)C(=O)N1C(C(=O)O)CC2CCCC21` (stereo unspecified): 8.56 min.
For `C=CCN1CCCC1CNC(=O)c1cc2n[nH]nc2cc1OC` (stereo unspecified) the value was 3.62 min.
For `CNC(=O)CSP(=S)(OC)OC` the value was 5.23 min.
As to `CC(CN1c2ccccc2Sc2ccccc21)N(C)C` (stereo unspecified), the LC retention time came to 7.53 min.
For `Cc1ccc(N=Nc2c(O)ccc3ccccc23)c(C)c1` the value was 14.9 min; for `CC1C2Cc3ccc(O)cc3C1(C)CCN2CCc1ccccc1` (stereo unspecified), 6.08 min.
The same measure for `Cc1ncc([N+](=O)[O-])n1C`: 4.27 min; for `CCCCc1c(C)nc(NCC)nc1OS(=O)(=O)N(C)C`: 10.5 min.
As to `CC1(C)C(C(=O)OC(C#N)c2cccc(Oc3ccccc3)c2)C1(C)C` (stereo unspecified), the LC retention time was 12.9 min.
For `Cc1cc(C)n(-c2nc3ccccc3[nH]2)n1` the value was 8.27 min.
On to `NC(N)=NC(N)=NCCc1ccccc1`, for which the LC retention time worked out at 4.38 min.
The same measure for `CCOP(=S)(OCC)SCn1nnc2ccccc2c1=O`: 10.2 min.
The same measure for `Nc1nc(=S)c2[nH]cnc2[nH]1`: 2.53 min.
For `COc1ccc2c3c([nH]c2c1)C(C)=NCC3` the value was 5.06 min; for `COP(=S)(OC)Oc1ccc(S(C)(=O)=O)c(C)c1`, 7.57 min; for `CC(C)OC(=O)c1cc(C(=O)OC(C)C)cc([N+](=O)[O-])c1`, 12 min.
Consider `CN(C)CCN1C(=O)c2ccccc2N(C)c2ccccc21`, for which the LC retention time stood at 5.49 min.
For `CCOC(=O)C=C1SC(N2CCCCC2)C(=O)N1CC` (stereo unspecified) the value was 9.85 min.
For `Cn1cnc2c1c(=O)[nH]c(=O)n2C` the value was 3.28 min; for `CCOC(=O)C(CCc1ccccc1)NC(C)C(=O)N1CC2(CC1C(=O)O)SCCS2` (stereo unspecified), 8.23 min.
For `CCC=CCC1=C(C)C(OC(=O)C2C(C=C(C)C)C2(C)C)CC1=O` (stereo unspecified) the value was 13.3 min; for `CCCCCn1cc(C(=O)c2cccc3ccccc23)c2cccc(O)c21`, 11.8 min; for `CC(C)=CC1C(C(=O)OCN2C(=O)C3=C(CCCC3)C2=O)C1(C)C` (stereo unspecified), 12.2 min.
As for `CCOP(=S)(OCC)Oc1cnc2ccccc2n1`, the LC retention time came out at 10.8 min.
The same measure for `CC1COC(=O)c2cc3c(cc21)C(C)(C)C(C)C3(C)C` (stereo unspecified): 12 min.
For `CN(C)CCC=C1c2ccccc2COc2ccc(CC(=O)O)cc21` the value was 6.89 min; for `CCOc1c(N)c2c(c(OCC)c1OCC)C(C1c3c(cc4c(c3OC)OCO4)CCN1C)OC2=O` (stereo unspecified), 12 min.
The same measure for `NCCc1ccc(O)cc1`: 2.28 min; for `CC=C1N(C)C(C)CC1(c1ccccc1)c1ccccc1` (stereo unspecified): 6.38 min; for `Nc1ccc(O)c(C(=O)O)c1`: 1.63 min.
As for `COc1ccc2[nH]cc(CC(C)N)c2c1` (stereo unspecified), the LC retention time was determined as 4.36 min.
For `CC1CCCCC1NC(=O)Nc1ccccc1` (stereo unspecified) the value was 9.37 min.
The same measure for `Cn1c(=O)c2[nH]cnc2n(C)c1=O`: 3.93 min; for `CCC=CCC1=C(C)C(OC(=O)C2C(C=C(C)C(=O)OC)C2(C)C)CC1=O` (stereo unspecified): 12.2 min.
The same measure for `COc1cc2nc(N3CCN(C(=O)c4ccco4)CC3)nc(N)c2cc1OC`: 5.34 min; for `CN(CCO)c1nc2c(c(=O)n(C)c(=O)n2C)n1C`: 4.94 min; for `CC1NCCOC1c1ccccc1` (stereo unspecified): 4.14 min.
For `CCCCCCCCCCCCOCCOCCOCCOCCO`, the LC retention time worked out at 13.5 min.

(Values after the RepoRT retention time repository (doi:10.1016/j.jhazmat.2019.121712).)
